According to patent publication US8569573B2 (priority 2007, dated 2013):

How the values were obtained:
[1] = system: human drug metabolism genes; assay: Induction of mRNAs involved in drug metabolism in cultured hepatocytes from chimeric mice (real-time PCR)
Source text: (§1) The basal expression and induction of human liver specific genes in chimeric mice was examined. […] Primers, obtained from Applied Biosystems, were specific for human CYP1A1 (Hs00153120_m1), CYP1A2 (Hs00167927_m1), CYP3A4 (Hs00430021_m1), CYP3A7 (Hs00426361_a1), CYP2B6 (Hs00167937_g1), CYP2D6 (Hs00164385_a1), Multidrug resistance associated protein MRP2 (Hs00166123_m1), Bile Salt export Pump BSEP, (Hs00184829_m1), CAR (Hs00231959_m1) Albumin (Hs00609411_m1), HNF4α (Hs00230853_m1), Cyclophillin (Hs99999904_m1) and mouse actin (Ma00607939_s1).
(§2) Cultures of isolated hepatocytes were established and exposed to prototypical inducers of the cytochrome P450 genes. […] In addition to the mRNA expression levels of human drug metabolism genes, the enzymatic activity of the human CYP1A and 3A family members were measured. Ethoxyresorufin-O-deethylase activity (EROD) is known to be mediated by CYP1A1 and 1A2 in human liver.

CYP1A1 and 1A2 = assay: Ethoxyresorufin-O-deethylase (EROD) activity on cultured hepatocytes from humanized FRG mouse liver; format: cell-based, human; details: humanized mouse liver cells, FIG. 6a
FRG mice = assay: Maintenance of FRG mice with NTBC in drinking water and NTBC withdrawal; format: in vivo, mouse
Source text: Several strains of immune-deficient Fah knockout mice were generated. Crossing the Fah mutation onto nude, nod/scid or Rag1^−/− backgrounds was unsuccessful. To generate an immunodeficient Fah^−/− mouse strain completely lacking T cells, B cells and NK cells, but without a DNA repair defect, Fah^−/−/Rag2^−/−/Il2rg^−/− (FRG) mice were generated. Male Fah^−/−129S4 mice (Grompe et al. Genes Dev. 7:2298-2307, 1993) were crossed with female Rag2^−/−/Il2rg^−/− mice (Taconic). All animals were maintained with drinking water containing 2-(2-nitro-4-trifluoro-methyl-benzoyl)-1,3 cyclohexanedione (NTBC) at a concentration of 1.6 mg/L (Grompe et al. Nat. Genet. 10:453-460, 1995). To confirm the genotypes of each animal, PCR-based genotyping was carried out on 200 ng genomic DNA isolated from toe tissue (Grompe et al. Genes Dev. 7:2298-2307, 1993; Traggiai et al. Science 304:104-107, 2004).

CYP3A4 = assay: Conversion of testosterone to 6-beta-hydroxyltestosterone in cultured hepatocytes from humanized FRG mouse liver; details: cultured hepatocytes from repopulated FRG livers, FIG. 6b
Source text: as §1, §2

## O=c1cc(-c2ccccc2)oc2ccc3ccccc3c12 [BNF, beta-naphthoflavone]
[1]; cultured hepatocytes from chimeric mice, FIG. 7
  pattern of genes induced: as expected from normal human cells
CYP1A1 and 1A2
  EROD activity after prior exposure to inducer: specifically and robustly induced

## O=C1CCCC(=O)C1C(=O)c1ccc(C(F)(F)F)cc1[N+](=O)[O-] [NTBC, 2-(2-nitro-4-trifluoro-methyl-benzoyl)-1,3 cyclohexanedione]
FRG mice; FRG mice, gradual hepatocellular injury after withdrawal
  time to death after NTBC withdrawal: 4-8 weeks
FRG mice; NTBC continuously in drinking water, 1.6 mg/L
  growth and fertility of FRG mice: grew well and were fully fertile

## CCC1(c2ccccc2)C(=O)NC(=O)NC1=O [PB, phenobarbital]
[1]; relative to non-induced cultures, FIG. 7b
  induction of CYP3A4 mRNA: even more striking than at the enzyme level
CYP3A4
  conversion of testosterone to 6-beta-hydroxyltestosterone after prior exposure to inducer: specifically induced
